Test results: US20120322886A1, “USE OF A SATURATED AMINES COMPOUND IN MANUFACTURE OF MEDICAMENTS FOR […] HEMATOPOIETIC STEM CELL” (Institute of Transfusion Medicine, Academy of Mili -tary …, priority 2009, published 2012)

Columns and labels:
[1] = system: CD34+ cells in peripheral blood; test: Percentage of CD34+ cells in peripheral blood by flow cytometry; assay type: in vivo, C57 mice; conditions: 5 mg/kg hypodermic injection, 4 h post injection, tail blood; compared to DMSO and G-CSF (FIG. 2)
Protocol: 9 C57 mice (Experimental animal center, Academy of Military Medical Sciences), male, were randomly divided into 3 groups: DMSO (Beijing Chemical Inc.) group with 3 mice, G-CSF (Xiamen Baote Biotechnology Inc.) group with 3 mice, TA01 group with 3 mice. Injection volume was calculated on the basis of 5 mg/kg body weight, and the medium for the injection was TE buffer with pH 7.5-8.5. At 4 h post hypodermic injection, 100 μL blood was harvested from tail and treated with RBC lysis buffer (Jingmei Biotechnology Inc.), wherein, the volume ratio of the blood to the RBC lysis buffer was 1:10. The two were uniformly mixed, stood for 10-15 min under room temperature, and then centrifuged for 6 min at 1500 rpm/min. After removing the supernatant, 100 ul 1% (v/v) serum (Hyclone Inc.) was added and mixed. Then 0.75 ul purified anti-mouse CD34 (Biolegend Inc) was added (operated on a superclean bench), mixed, and incubated for 1-2 h under room temperature. The mixture was added up to 1.5 ml with PBS containing 1% (v/v) serum, and then centrifuged for 5 min at 1500 rpm/min. After removing the supernatant, 100 ul 1% (v/v) serum was added and mixed. Then 2 ul Goat anti Mice antibody labeled with FITC (Beijing Zhongshanjinqiao Biotechnology Limited Co.) was added, mixed and incubated for 30 min under room temperature. […]

WBCs in peripheral blood = test: Number of WBCs in peripheral blood (Sysmex Microcell Counter); assay type: in vivo, C57 mice; conditions: 5 mg/kg hypodermic injection, 4 h post injection, tail blood; compared to DMSO and G-CSF (FIG. 3)
Protocol: 9 C57 mice, male, were randomly divided into 3 groups: DMSO group with 3 mice, G-CSF group with 3 mice, and TA01 group with 3 mice. Injection volume was calculated on the basis of 5 mg/kg body weight, and the medium for injection was TE buffer with pH 7.5-8.5. At 4 h post hypodermic injection, 10 μl blood was harvested from tail and treated with 2 ml cell diluting buffer (Jinnan Bolai Biotechnology Limited Co.). The number of WBCs was determined by a Sysmex Microcell Counter.

MNCs in peripheral blood = test: CFU and CFU-GM generated by MNCs in peripheral blood (semisolid medium culture); assay type: in vivo, C57 mice; conditions: 5 mg/kg hypodermic injection, blood at 4 h, MNCs cultured 7 days; compared to DMSO and G-CSF (FIG. 4)
Protocol: 9 C57 mice, male, were randomly divided into 3 groups: DMSO group with 3 mice, G-CSF group with 3 mice, TA01 group with 3 mice. Injection volume was calculated on the basis of 5 mg/kg body weight, and the medium for injection was TE buffer with pH 7.5-8.5. At 4 h post hypodermic injection, the eyeballs were extracted and the peripheral blood was collected into a 10 ml centrifuge tube which was rinsed with heparin (Tianjin Haoyang Bioproduct Technology Limited Co.) in advance, and then PBS (Hyclone Inc.) was added up to 5 ml and mixed. Mouse percoll (Tianjin Haoyang Bioproduct Technology Limited Co.) was preloaded into vials at 5 ml/vial (operated on a superclean bench), and then the blood mixed with PBS was slightly impregnated into the upper layer of the percoll and centrifuged for 20 min at 2000 rpm/min. Cells in the middle layer were transferred into a new 10 ml centrifuge tube which was filled up to 10 ml with PBS, and centrifuged for 5 min at 1500 rpm/min to remove PBS in the supernatant. The tube was filled up to 10 ml with PBS, centrifuged for another 5 min at 1500 rpm/min to remove PBS in the supernatant. Then, the tube was filled up to 1 ml with PBS. The number of cells was then counted and the number of the mononuclear cells (MNCs) per ml of the solution was calculated. […] Finally, CFU and CFU-GM were counted.

[2] = system: mice receiving a lethal irradiation; test: Survival of lethally irradiated mice after transplant of mobilized peripheral blood MNCs; assay type: in vivo, C57 mice; conditions: 7.0 Gy 60Co irradiation; tail vein injection of MNCs from donors given 5 mg/kg, 4 h; survival in 30 days; compared to DMSO and G-CSF (FIG. 5)
Protocol: 9 C57 mice, male, were randomly divided into 3 groups, and then received a whole body irradiation by ^60Co γ ray at 2.72 Gy/min with a volume of 7.0 Gy. 9 C57 mice, male, were randomly divided into 3 groups: DMSO group with 3 mice, G-CSF group with 3 mice, and TA01 group with 3 mice. Injection volume was calculated on the basis of 5 mg/kg body weight, and the medium for injection was TE buffer with pH 7.5-8.5. At 4 h post hypodermic injection, the eyeballs were extracted and peripheral blood was collected into a 10 ml centrifuge tube which was rinsed with heparin in advance, and then PBS was added up to 5 ml and mixed. Mouse percoll (Tianjin Haoyang Bioproduct Technology Limited Co.) was preloaded into vials at 5 ml/vial (operated on a superclean bench), and then the blood mixed with PBS was slightly impregnated to the upper layer of the percoll and centrifuged for 20 min at 2000 rpm/min. Cells in the middle layer were transferred into a new 10 ml centrifuge tube which was filled up to 10 ml with PBS, centrifuged for 5 min at 1500 rpm/min to remove PBS in the supernatant. The tube was filled up to 10 ml with PBS, and centrifuged for another 5 min at 1500 rpm/min to remove PBS in the supernatant. Then the tube was filled up to 0.5 ml with PBS. […] The number of survival mice in 30 days was counted.

hematopoietic stem cells = test: Mobilization of hematopoietic stem cells into peripheral blood (overall conclusion); assay type: in vivo; conditions: summary statement; verification processes for other compounds not described

SMILES: CN(C)CCN(CCN(C)C)CCN(C)C [TA01, Tris[2-(dimethylamino)ethyl]amine]
- percentage of CD34+ cells in peripheral blood [1]: can increase the percentage of CD34+ cells in peripheral blood compared to DMSO and G-CSF
- number of WBCs in peripheral blood (WBCs in peripheral blood): can increase the number of WBCs in peripheral blood compared to DMSO and G-CSF
- number of CFU generated by MNCs in peripheral blood (MNCs in peripheral blood): can promote the numbers of both CFU and CFU-GM
- number of CFU-GM generated by MNCs in peripheral blood (MNCs in peripheral blood): can promote the numbers of both CFU and CFU-GM
- survival rate of mice receiving a lethal irradiation [2]: survival rate of the mice receiving a lethal irradiation can be increased
- mobilization of hematopoietic stem cells into peripheral blood (hematopoietic stem cells): can efficiently mobilize hematopoietic stem cells into peripheral blood
